Among the data in ChEMBL document CHEMBL1201862, “PubChem BioAssay data set” (2004) are IC50, AC50 and CC50 values, retold here.

Assay [1] has as its target DNA dC->dU-editing enzyme APOBEC-3G (Homo sapiens, UniProt Q9HC16). The assay is described as follows: APOBEC3G deaminase inhibitors, SAR follow-up, biochemical, fluorescence, single-stranded DNA substrate (AID 602136). To be noted: read-out: IC50_Mean. In kind it is functional.
For assay [2], the target named is DNA dC->dU-editing enzyme APOBEC-3A (Homo sapiens, UniProt P31941). The assay is described as follows: SAR analysis of small molecule inhibitors of APOBEC3A DNA Deaminase via a fluorescence-based single-stranded DNA deaminase assay. In kind it is functional. To be noted: read-out: IC50_Mean.
DNA dC->dU-editing enzyme APOBEC-3A, sequence (P31941 whole entry): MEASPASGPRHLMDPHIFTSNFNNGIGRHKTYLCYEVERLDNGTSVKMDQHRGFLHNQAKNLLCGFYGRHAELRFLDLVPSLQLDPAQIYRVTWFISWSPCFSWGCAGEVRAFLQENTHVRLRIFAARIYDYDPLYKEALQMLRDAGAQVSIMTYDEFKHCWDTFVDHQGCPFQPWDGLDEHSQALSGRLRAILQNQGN
In assay [3] the target is Latent membrane protein 1 (Human herpesvirus 4 (strain B95-8), UniProt P03230). The assay is described as follows: TES1-eGFP NF-kB reporter inhibition versus Tet-On dsRED, dose response, selectivity assay for LMP1 NF-kB inhibitor project, imaging, HEK293T, dual-color eGFP/dsRED, cherry-picks (AID 588398). In kind it is functional, cell-based.
Latent membrane protein 1, sequence (P03230 whole entry, the tested form may be a part): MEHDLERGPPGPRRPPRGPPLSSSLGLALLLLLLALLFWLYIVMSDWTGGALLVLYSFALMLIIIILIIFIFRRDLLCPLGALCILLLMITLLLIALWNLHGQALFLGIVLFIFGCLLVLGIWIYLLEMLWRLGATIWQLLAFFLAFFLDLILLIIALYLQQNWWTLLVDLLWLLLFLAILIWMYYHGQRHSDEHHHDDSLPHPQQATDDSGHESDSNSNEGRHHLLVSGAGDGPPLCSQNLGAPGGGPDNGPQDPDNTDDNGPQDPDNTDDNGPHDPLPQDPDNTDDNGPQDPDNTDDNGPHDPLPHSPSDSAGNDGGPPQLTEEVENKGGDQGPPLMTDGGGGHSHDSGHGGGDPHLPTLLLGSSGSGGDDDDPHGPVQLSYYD
Assay [4] deals with Disintegrin and metalloproteinase domain-containing protein 17 (Homo sapiens, UniProt P78536). The assay is described as follows: exosite inhibitors of ADAM17, dose response, biochemical (AID 743260).
Disintegrin and metalloproteinase domain-containing protein 17, sequence (P78536 whole entry, the tested form may be a part): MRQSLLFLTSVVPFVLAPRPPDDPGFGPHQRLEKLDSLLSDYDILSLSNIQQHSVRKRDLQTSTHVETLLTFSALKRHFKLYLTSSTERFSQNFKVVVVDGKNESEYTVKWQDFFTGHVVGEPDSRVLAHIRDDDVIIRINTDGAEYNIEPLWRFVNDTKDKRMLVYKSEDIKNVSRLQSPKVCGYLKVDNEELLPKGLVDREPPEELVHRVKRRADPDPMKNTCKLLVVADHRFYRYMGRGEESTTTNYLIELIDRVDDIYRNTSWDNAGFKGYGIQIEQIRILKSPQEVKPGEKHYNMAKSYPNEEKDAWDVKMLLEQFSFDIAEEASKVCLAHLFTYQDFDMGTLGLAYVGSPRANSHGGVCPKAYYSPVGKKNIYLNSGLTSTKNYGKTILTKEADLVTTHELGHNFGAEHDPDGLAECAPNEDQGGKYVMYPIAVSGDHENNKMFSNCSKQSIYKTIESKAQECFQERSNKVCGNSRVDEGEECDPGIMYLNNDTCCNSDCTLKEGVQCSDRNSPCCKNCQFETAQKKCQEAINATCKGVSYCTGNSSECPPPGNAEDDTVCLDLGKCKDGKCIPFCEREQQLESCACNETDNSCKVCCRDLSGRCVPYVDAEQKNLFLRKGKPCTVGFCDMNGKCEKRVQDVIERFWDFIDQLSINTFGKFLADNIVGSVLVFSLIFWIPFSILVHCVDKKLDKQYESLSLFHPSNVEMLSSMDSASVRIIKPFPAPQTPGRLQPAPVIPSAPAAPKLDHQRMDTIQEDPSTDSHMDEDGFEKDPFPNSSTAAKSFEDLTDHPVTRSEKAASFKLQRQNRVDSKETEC
A short description of assay [5]: ADAM10 protease inhibitors, dose response, selectivity assay for ADAM17 exosite inhibitor project, biochemical, FRET peptide substrate, recombinant human ADAM10 (AID 743259).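 Also: ADAM10 enzyme cleaving a FRET peptide substrate.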
The target in assay [6] is T1, Sentrin-specific protease 8 (Homo sapiens, UniProt Q96LD8).
T1 sequence (Q96LD8 whole entry): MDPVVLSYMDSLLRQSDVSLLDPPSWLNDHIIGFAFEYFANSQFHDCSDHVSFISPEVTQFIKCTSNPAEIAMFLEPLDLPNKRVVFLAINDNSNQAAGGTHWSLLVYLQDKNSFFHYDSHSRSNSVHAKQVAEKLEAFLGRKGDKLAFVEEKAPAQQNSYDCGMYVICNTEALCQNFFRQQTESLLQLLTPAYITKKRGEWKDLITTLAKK
Description: SENP8 protease inhibitors, SAR follow-up, biochemical, luminescence, set 2 (AID 588601). In kind it is functional.

Assay [7] addresses T1, Sentrin-specific protease 8. Description: SENP8 protease inhibitors, SAR follow-up, biochemical, luminescence (AID 504501). In kind it is functional.
The target of assay [8] is T2, Sentrin-specific protease 6 (Homo sapiens, UniProt Q9GZR1).
T2 sequence (Q9GZR1 whole entry): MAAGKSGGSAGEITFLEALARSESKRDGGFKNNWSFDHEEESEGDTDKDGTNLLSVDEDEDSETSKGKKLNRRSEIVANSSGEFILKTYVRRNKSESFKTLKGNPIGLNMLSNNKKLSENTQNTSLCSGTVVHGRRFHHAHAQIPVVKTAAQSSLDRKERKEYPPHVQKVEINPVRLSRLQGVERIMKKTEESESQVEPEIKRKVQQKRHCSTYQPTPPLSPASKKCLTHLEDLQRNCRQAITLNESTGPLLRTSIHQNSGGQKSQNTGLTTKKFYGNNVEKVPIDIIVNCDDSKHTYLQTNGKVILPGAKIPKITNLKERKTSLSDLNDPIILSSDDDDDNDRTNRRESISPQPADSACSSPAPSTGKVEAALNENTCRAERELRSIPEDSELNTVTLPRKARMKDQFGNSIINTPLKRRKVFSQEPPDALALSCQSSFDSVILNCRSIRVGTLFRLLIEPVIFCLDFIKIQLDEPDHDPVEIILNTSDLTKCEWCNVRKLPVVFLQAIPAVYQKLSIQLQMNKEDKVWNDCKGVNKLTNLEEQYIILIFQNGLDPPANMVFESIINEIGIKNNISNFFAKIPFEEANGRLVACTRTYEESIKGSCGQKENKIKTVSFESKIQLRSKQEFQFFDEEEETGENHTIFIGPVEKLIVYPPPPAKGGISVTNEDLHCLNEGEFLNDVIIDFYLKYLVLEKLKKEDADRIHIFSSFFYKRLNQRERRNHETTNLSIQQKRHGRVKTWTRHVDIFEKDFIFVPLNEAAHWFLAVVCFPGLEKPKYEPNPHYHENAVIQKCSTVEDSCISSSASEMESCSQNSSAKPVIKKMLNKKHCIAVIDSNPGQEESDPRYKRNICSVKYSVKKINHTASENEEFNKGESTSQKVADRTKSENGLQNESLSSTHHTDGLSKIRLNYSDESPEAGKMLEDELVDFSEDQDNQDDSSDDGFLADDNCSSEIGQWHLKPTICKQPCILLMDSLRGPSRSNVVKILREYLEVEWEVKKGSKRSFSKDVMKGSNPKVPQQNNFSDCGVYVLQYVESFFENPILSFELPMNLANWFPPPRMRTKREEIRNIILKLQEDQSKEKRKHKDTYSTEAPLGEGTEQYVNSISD
The assay is described as follows: SENP6 protease inhibitors, SAR follow-up, biochemical, luminescence, set 2 (AID 588598). In kind it is functional.

The target of assay [9] is T3, Caspase-3 (Homo sapiens, UniProt P42574).
T3 sequence (P42574 whole entry): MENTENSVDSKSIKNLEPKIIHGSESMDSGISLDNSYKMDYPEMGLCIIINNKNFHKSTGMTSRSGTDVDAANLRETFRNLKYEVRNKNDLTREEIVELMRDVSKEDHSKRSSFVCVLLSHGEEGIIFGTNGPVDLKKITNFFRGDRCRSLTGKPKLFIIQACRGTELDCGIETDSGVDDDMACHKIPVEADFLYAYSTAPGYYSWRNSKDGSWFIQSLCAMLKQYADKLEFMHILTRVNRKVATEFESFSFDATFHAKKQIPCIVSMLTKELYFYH
Description: SAR Analysis of small molecule inhibitors of Sentrin-specific proteases (SENPs) using a Caspase-3 Selectivity assay. [Related pubchem assays (depositor defined):AID2540, AID2599, AID434973, AID489001]. In kind it is functional.

Assay [10] deals with T3, Caspase-3. The assay is described as follows: caspase-3 inhibitors as off-family protease, SAR follow-up, selectivity assay for SENP protease inhibitor project, biochemical, luminescence, set 2 (AID 588599). In kind it is functional.
Assay [11] concerns the target T4, Sentrin-specific protease 7 (Homo sapiens, UniProt Q9BQF6).
T4 sequence (Q9BQF6 whole entry): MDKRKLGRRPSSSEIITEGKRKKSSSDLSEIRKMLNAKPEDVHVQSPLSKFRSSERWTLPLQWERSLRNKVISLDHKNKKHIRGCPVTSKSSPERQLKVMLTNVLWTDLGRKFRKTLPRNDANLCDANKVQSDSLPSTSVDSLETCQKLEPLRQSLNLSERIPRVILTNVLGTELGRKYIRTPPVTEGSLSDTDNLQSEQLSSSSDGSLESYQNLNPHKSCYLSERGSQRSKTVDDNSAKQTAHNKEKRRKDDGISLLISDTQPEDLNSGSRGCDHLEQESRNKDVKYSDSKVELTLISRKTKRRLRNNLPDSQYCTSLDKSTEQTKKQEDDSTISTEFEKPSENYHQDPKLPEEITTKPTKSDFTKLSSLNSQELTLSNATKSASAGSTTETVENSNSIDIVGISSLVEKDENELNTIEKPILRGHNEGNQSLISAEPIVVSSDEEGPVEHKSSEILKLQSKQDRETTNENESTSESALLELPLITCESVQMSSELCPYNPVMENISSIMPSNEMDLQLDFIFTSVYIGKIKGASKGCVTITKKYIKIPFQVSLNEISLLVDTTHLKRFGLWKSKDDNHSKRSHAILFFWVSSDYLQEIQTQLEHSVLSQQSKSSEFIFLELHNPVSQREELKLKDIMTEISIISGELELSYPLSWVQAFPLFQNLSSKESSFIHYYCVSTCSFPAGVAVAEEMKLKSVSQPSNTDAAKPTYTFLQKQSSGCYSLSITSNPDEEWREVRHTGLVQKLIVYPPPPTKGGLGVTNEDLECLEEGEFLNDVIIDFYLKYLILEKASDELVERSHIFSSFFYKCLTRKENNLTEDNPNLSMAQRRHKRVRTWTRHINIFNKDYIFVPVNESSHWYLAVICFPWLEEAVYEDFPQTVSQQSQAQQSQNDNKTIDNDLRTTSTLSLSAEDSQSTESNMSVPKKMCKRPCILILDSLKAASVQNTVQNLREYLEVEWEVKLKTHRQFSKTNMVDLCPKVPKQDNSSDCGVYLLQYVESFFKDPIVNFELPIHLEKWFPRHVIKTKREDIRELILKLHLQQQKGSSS
The assay is described as follows: SENP7 protease inhibitors, SAR follow-up, biochemical, luminescence (AID 504497). In kind it is functional.

For assay [12], the target named is T2, Sentrin-specific protease 6. The assay is described as follows: SAR Analysis of small molecule inhibitors of Sentrin-specific protease 6 (SENP6) using a Luminescent assay. [Related pubchem assays (depositor defined):AID2582, AID2599]. In kind it is functional.
A short description of assay [13]: Vero E6 cell cytotoxicity, dose response, cytotoxicity control for non-replicating M. tuberculosis project, secondary assay (AID 492998). In kind it is functional, VeroE6. To be noted: Vero C1008.
The next assay concerns the target Beta Lactamase (Pseudomonas aeruginosa, UniProt Q932Y6). Description: beta-lactamase reporter inhibitor potency, dose response, artefact control for TLR9-MyD88 binding inhibitor project, BLA reporter cells, FRET fluorescence (AID 588341).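 Also: cell based assay in CHO-K1 cells stably expressing beta-lactamase.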 In kind it is cell-based.
The nature of another assay: cells. In kind it is functional.
The next assay deals with CHO. The assay is described as follows: cytotoxicity in TLR9-MyD88 CHO cells, dose response, cytotoxicity control for TLR9-MyD88 binding inhibitor project, cell-based, luminescence (AID 588339).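 Also: CHO cells stably coexpressing TLR9 and MyD88 fusions from primary screen; compound exposure lasted 48 hours before viability readout.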 In kind it is functional, hamster. To be noted: Cricetulus griseus.
The nature of assay [14]: THP-1 cell cytotoxicity, dose response, cytotoxicity control for non-replicating M. tuberculosis project (AID 489025). In kind it is functional.

Active and inactive are the calls of the source.

Beta Lactamase, sequence (Q932Y6 whole entry): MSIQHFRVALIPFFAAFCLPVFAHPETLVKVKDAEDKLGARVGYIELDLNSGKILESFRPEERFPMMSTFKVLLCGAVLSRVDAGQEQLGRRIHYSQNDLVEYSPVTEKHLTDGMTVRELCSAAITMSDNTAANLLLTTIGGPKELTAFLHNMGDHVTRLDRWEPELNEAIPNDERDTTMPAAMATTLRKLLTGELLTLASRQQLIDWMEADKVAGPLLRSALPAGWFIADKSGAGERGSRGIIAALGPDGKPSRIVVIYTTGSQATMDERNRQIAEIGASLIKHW
DNA dC->dU-editing enzyme APOBEC-3G, sequence (Q9HC16 whole entry): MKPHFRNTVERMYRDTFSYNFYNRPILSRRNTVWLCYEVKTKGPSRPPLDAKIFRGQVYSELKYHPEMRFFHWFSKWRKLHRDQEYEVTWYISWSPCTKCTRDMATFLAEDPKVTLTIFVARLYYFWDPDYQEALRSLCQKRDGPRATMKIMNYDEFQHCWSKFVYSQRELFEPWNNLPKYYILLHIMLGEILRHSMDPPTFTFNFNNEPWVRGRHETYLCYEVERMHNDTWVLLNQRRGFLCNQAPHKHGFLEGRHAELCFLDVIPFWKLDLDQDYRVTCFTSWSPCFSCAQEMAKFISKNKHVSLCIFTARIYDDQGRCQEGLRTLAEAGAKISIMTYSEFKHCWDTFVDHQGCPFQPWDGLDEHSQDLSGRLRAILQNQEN

With `COc1ccc(-c2nnc(SCc3coc(-c4cccs4)n3)[nH]2)cc1`, the IC50 in assay [1] and in assay [2] was > 99 µM (inactive) throughout.

The AC50 is the concentration at which the activity in the assay is half-maximal. With `COc1ccc(CN(C(=O)c2nsc(Cl)c2Cl)C(C(=O)NC2CCCC2)c2ccc(C)cc2)cc1` (configuration not stated), the AC50 in assay [3] was 27.6 µM (active). Also, the results for the IC50 in assay [4] and in assay [5] were > 69.5 µM (inactive) and > 7.72 µM (active), respectively.

In the case of `COc1ccccc1OCc1nc(-c2ccccc2Cl)no1`, the IC50 is 2 µM (active) in [6]; 4.9 µM (active) in assay [7]; 2.08 µM (active) in [8]; 2.9 µM (active) at Caspase-3 [9]; 3.23 µM (active) on Caspase-3 [10]; 2.1 µM (active) in [11]. In addition, in [12], the IC50 was 4.7 µM (active).

As usually defined, the CC50 is the concentration that lowers cell viability or growth by half. As to `CC(=O)Oc1ccc(N2C(=O)c3cccc4c([N+](=O)[O-])ccc(c34)C2=O)cc1`, the CC50 in [13] is > 20 µM (active); in [14] it was 6.74 µM (active). Moreover, the figures for the IC50 at Beta Lactamase, in “cells” and with CHO were 4.06 µM (active), 9.16 µM (active) and 6.34 µM (active), respectively.
